Data as given in ChEMBL document CHEMBL1201862, “PubChem BioAssay data set” (2004).
Values belong to the molecule of their own block, whether it stands above or below them. The source made the active and inactive calls.

Key:
[1] = mitochondrial function rescue without frataxin homolog – Friedreich's ataxia, plus single-dose screen, dose response (AID 1465); format: functional;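 also: yeast depleted of Yfh1p frataxin homolog grown on glycerol needing respiration; WST-1 tetrazolium dye reduction as measure of cellular dehydrogenase metabolic activity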
[2] = biological target: Luciferin 4-monooxygenase (Photinus pyralis, UniProt P08659); experiment: inhibition of purified Photinus pyralis luciferase – biochemical, luminescence, dose response (AID 1891)
CHO-K1 = experiment: (§1) Counterscreen for antagonists of the orexin 1 receptor (OX1R; HCRTR1): Homogeneous time resolved fluorescence (HTRF)-based cell-based dose response assay to identify antagonists of the parental CHO-K1 cell line. [Related pubchem assays (depositor defined):AID434989, AID435008, AID463079, AID485270, AID492963, AID492964, AID492965, AID493232, AID504699, AID504701]; format: functional; settings: Cricetulus griseus
[3] = biological target: T1, Orexin/Hypocretin receptor type 1 (Homo sapiens, UniProt O43613); experiment: Homogeneous Time Resolved Fluorescence (HTRF)-based cell-based high throughput dose response assay for antagonists of the orexin 1 receptor (OX1R; HCRTR1). [Related pubchem assays (depositor defined):AID434989, AID435008, AID463079, AID485270, AID492963, AID492964, AID492965, AID493232, AID504717, AID504718]; format: functional
[4] = Luminescence Cell-Based Dose Confirmation HTS to Identify Inhibitors of Platelet Dense Granule Release. [Related pubchem assays: 1663 (Primary HTS), 1678 (Summary of Project)]; format: functional
[5] = as §1, with “Fluorescence-based” for “Homogeneous time resolved fluorescence (HTRF)-based”, “cell-based high throughput” for “cell-based”, “CHO” for “CHO-K1”; format: functional
[6] = biological target: T1, Orexin/Hypocretin receptor type 1; experiment: Fluorescence-based cell-based high throughput dose response assay for antagonists of the orexin 1 receptor (OX1R; HCRTR1). [Related pubchem assays (depositor defined):AID434989, AID435008, AID463079, AID485270, AID492963, AID492964, AID492965, AID493232, AID504717, AID504718]; format: functional
[7] = biological target: Intestinal-type alkaline phosphatase (Homo sapiens, UniProt P09923); experiment: human intestinal alkaline phosphatase activators, dose response, biochemical, luminescence, uHTS hits (AID 463120); format: functional
HEK293 = experiment: cells; settings: Homo sapiens;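 also: cells exposed to compound for 14 hours overnight before viability readout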
Tumor necrosis factor = Tumor necrosis factor (Homo sapiens, UniProt P01375); experiment: analog potency on TNFa NF-kB signaling – cell-based, revised, SAR follow-up (AID 2337); format: functional
[8] = biological target: Nucleotide-binding oligomerization domain-containing protein 1 (Homo sapiens, UniProt Q9Y239); experiment: blockers of NOD1 pathway activity – revised, SAR follow-up (AID 2333); format: functional
[9] = biological target: Nucleotide-binding oligomerization domain-containing protein 2 (Homo sapiens, UniProt Q9HC29); experiment: PubChem AID 2334; format: functional
[10] = biological target: T2, Tyrosine-protein phosphatase non-receptor type 22 (Homo sapiens, UniProt Q9Y2R2); format: functional
[11] = biological target: T3, Tyrosine-protein phosphatase non-receptor type 7 (Homo sapiens, UniProt P35236); format: functional
T3 sequence (P35236 whole entry): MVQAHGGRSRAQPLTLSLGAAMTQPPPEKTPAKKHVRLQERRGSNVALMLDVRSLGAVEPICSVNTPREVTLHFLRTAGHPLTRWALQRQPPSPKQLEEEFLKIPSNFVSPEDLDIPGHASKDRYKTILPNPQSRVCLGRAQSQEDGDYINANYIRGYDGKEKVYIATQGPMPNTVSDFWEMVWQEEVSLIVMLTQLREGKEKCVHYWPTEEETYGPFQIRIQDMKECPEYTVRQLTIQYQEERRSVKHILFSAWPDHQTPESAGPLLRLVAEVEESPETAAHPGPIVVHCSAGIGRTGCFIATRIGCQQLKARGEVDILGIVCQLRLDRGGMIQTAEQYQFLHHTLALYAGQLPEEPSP

[12] = biological target: T2, Tyrosine-protein phosphatase non-receptor type 22; format: functional; remark: listed apart in the source
[13] = biological target: T4, E3 ubiquitin-protein ligase XIAP (Homo sapiens, UniProt P98170); experiment: SAR analysis of Antagonists of IAP-family anti-apoptotic proteins. [Related pubchem assays (depositor defined):AID1018, AID1449, AID1513, AID1514, AID1638]
[14] = biological target: T4, E3 ubiquitin-protein ligase XIAP; experiment: SAR analysis of Antagonists of XIAP-Bir3 domain of IAP-family anti-apoptotic proteins. [Related pubchem assays (depositor defined):AID1018, AID1449, AID1513, AID1514, AID1638]
[15] = biological target: Signal transducer and activator of transcription 3 (Homo sapiens, UniProt P40763); experiment: STAT3 blockade with qPCR and toxicity readouts – cell-based, STAT1 panel, cytotoxicity, late-stage follow-up, panel member STAT3 Inhibition (AID 2078)
[16] = biological target: Signal transducer and activator of transcription 1-alpha/beta (Homo sapiens, UniProt P42224); experiment: STAT3 blockade with qPCR and toxicity readouts – cell-based, STAT1 panel, cytotoxicity, late-stage follow-up, panel member STAT1 Inhibition (AID 2078)
[17] = biological target: T5, Kappa-type opioid receptor (Homo sapiens, UniProt P41145); experiment: SAR analysis of small molecule agonists of the kappa opioid receptor via a luminescent beta-arrestin assay - Set 3. [Related pubchem assays (depositor defined):AID1777, AID1785, AID1786, AID1966, AID2133, AID2136, AID2284, AID2500]; format: functional
[18] = biological target: T5, Kappa-type opioid receptor; experiment: kappa opioid receptor activation by imaging – image-based, set 3, SAR follow-up (AID 488833); format: functional
[19] = biological target: Delta-type opioid receptor (Homo sapiens, UniProt P41143); experiment: SAR Analysis of Agonists of the DOR Receptor using an Image-Based Assay - Set 3. [Related pubchem assays (depositor defined):AID1777, AID1786]; format: functional
Mu-type opioid receptor = Mu-type opioid receptor (Homo sapiens, UniProt P35372); experiment: SAR Analysis of Agonists of the MOR Receptor using an Image-Based Assay - Set 3. [Related pubchem assays (depositor defined):AID1777, AID1785, AID1786, AID1966, AID2133, AID2136, AID2284, AID2285, AID2352]; format: functional
Sequence of Mu-type opioid receptor (P35372 whole entry): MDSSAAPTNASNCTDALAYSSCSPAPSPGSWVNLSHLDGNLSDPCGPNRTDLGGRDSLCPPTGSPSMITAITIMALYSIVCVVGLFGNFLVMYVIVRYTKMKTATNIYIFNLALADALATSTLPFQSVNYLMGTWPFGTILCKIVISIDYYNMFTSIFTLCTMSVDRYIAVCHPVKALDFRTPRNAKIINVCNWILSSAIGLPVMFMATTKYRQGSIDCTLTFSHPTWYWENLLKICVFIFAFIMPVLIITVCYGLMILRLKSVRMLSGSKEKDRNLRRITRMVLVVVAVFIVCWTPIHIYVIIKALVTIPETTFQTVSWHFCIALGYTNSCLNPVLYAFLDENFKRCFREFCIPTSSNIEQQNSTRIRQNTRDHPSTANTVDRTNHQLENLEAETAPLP

T5 sequence (P41145 whole entry): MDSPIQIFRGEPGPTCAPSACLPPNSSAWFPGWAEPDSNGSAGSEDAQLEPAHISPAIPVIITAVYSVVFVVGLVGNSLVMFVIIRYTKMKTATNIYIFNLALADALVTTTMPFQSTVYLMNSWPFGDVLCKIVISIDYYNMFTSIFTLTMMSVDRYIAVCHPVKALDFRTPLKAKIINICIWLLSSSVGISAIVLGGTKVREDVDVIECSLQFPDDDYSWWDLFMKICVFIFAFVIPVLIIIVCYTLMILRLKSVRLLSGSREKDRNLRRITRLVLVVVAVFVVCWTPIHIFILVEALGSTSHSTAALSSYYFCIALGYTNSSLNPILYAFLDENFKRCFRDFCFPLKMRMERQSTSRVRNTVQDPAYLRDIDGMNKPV
T1 sequence (O43613 whole entry): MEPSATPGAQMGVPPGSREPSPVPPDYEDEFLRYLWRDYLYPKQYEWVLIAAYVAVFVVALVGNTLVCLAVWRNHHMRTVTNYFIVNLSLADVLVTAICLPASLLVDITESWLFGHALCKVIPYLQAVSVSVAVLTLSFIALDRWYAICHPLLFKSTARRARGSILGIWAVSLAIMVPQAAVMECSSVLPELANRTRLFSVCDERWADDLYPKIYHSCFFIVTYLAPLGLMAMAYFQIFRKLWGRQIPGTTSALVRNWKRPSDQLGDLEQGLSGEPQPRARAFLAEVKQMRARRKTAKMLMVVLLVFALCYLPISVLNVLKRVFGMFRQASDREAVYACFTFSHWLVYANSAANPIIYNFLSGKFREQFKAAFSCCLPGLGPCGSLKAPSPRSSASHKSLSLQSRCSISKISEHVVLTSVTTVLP
T2 sequence (Q9Y2R2 whole entry): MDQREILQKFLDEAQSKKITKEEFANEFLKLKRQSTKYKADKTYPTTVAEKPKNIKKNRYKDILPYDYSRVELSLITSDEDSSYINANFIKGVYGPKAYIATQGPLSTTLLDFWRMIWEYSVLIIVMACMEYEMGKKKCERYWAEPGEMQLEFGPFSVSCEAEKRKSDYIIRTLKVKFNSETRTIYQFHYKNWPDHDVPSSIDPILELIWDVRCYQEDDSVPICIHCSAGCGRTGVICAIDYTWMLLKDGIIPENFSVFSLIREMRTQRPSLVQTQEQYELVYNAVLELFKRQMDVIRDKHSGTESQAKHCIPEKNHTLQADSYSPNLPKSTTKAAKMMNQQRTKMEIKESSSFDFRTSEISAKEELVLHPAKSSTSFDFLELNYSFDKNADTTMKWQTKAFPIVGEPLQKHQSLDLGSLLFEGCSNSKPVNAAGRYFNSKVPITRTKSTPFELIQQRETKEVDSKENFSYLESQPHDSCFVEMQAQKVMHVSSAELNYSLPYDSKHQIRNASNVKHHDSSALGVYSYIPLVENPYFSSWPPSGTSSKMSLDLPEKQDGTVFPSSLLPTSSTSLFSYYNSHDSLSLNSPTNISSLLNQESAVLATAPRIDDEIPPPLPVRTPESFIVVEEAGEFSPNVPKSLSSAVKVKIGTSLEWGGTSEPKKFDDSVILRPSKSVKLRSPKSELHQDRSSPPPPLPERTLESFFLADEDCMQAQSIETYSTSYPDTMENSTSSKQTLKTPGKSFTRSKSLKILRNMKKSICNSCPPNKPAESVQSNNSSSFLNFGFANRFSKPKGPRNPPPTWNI
T4 sequence (P98170 whole entry, the tested form may be a part): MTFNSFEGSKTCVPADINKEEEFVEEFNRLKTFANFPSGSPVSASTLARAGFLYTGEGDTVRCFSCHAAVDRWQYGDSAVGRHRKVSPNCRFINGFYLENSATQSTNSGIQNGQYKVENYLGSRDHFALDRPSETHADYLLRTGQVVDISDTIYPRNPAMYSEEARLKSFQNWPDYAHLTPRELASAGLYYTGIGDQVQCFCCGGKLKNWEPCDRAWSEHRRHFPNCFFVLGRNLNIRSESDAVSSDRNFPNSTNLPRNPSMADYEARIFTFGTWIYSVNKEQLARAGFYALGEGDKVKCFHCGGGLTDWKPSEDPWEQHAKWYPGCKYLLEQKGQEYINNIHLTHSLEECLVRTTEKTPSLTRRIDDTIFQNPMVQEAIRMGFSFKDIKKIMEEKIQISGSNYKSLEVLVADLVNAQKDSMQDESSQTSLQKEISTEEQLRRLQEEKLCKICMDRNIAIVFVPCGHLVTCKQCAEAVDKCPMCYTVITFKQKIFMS
Sequence of Nucleotide-binding oligomerization domain-containing protein 2 (Q9HC29 whole entry, the tested form may be a part): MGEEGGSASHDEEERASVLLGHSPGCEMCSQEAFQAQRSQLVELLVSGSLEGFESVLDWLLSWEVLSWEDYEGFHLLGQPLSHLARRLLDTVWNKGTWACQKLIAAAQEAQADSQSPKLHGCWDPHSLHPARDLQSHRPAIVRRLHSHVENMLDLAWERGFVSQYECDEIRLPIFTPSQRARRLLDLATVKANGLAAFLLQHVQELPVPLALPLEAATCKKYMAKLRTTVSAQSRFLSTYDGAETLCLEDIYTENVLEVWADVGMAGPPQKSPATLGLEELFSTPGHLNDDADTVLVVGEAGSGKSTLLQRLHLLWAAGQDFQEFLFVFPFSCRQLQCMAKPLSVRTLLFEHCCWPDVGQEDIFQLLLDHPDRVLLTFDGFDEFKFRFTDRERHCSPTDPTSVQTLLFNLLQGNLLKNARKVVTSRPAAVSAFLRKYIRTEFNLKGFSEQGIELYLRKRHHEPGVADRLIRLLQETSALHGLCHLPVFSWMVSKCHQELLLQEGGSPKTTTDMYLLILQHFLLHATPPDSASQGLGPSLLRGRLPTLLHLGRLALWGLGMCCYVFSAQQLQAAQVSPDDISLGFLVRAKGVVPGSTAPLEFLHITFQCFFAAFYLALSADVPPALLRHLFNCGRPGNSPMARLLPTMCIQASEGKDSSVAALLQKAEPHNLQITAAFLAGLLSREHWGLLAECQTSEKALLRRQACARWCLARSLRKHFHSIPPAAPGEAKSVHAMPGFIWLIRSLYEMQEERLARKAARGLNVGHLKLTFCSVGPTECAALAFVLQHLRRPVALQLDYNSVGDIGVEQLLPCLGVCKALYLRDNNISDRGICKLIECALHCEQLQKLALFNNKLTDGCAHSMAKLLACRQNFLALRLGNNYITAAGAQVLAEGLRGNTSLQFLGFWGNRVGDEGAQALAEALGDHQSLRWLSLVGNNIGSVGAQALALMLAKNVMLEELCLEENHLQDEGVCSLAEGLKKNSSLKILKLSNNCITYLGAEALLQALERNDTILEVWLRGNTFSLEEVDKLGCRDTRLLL
Sequence of Signal transducer and activator of transcription 3 (P40763 whole entry): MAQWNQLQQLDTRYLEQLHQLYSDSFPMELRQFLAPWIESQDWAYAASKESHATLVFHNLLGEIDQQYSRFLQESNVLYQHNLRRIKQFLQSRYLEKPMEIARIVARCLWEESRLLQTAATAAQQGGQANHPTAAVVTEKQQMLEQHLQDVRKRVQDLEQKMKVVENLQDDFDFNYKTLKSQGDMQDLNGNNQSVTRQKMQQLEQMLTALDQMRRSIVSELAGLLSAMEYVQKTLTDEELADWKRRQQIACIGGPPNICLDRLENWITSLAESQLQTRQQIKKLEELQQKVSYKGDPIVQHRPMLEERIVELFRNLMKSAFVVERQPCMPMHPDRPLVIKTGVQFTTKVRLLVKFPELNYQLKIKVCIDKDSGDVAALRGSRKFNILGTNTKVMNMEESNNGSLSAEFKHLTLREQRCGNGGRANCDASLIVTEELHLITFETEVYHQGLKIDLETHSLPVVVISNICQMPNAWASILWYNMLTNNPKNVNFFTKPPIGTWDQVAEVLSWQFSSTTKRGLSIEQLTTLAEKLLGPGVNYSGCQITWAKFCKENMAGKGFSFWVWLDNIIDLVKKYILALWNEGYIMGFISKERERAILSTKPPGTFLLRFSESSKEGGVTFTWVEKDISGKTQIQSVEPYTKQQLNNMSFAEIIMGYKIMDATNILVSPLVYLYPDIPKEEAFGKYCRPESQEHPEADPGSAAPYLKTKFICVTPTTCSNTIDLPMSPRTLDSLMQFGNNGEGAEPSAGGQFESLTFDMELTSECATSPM
Sequence of Tumor necrosis factor (P01375 whole entry, the tested form may be a part): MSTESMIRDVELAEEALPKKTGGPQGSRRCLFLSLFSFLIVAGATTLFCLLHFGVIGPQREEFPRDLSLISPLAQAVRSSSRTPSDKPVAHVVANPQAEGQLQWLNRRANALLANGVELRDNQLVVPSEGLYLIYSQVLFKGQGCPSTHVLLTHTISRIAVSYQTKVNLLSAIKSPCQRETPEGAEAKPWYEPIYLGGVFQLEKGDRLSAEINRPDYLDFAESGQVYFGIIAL
Sequence of Delta-type opioid receptor (P41143 whole entry): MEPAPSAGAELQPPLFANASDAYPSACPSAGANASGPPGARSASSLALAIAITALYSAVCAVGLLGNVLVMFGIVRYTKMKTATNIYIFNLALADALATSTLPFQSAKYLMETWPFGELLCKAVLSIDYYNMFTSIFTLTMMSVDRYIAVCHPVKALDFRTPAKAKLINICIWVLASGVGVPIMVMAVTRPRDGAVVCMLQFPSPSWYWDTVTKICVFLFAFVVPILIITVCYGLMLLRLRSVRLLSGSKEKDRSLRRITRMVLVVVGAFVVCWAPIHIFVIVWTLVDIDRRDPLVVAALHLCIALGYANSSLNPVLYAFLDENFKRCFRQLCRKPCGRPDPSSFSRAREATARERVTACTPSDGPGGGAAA

Structure (SMILES): O=C(N/C(=C/c1cccc(Br)c1)c1nc(S)n[nH]1)c1ccccc1
EC50 [1]: > 100 µM (active)
EC50 [2]: 28.9 µM (active)
IC50 (CHO-K1): > 66.2 µM (inactive)
IC50 [3]: > 66.2 µM (inactive)
EC50 [4]: > 112 µM (not active)
IC50 [5]: 33.3 µM (inactive)
IC50 [6]: 16.8 µM (inactive)

EC50 [7]: > 100 µM (inactive)
Structure (SMILES): O=C(COc1ccc2ccccc2c1Br)N1CCCCC1

Structure (SMILES): Cc1ccc(C(=O)Nc2sc3c(c2C(=O)O)CCCC3)o1
IC50 (HEK293): > 20 µM (inactive)
IC50 (Tumor necrosis factor): > 20 µM (inactive)
IC50 [8]: > 20 µM (inactive)
IC50 [9]: > 20 µM (inactive)

IC50 [10]: > 79.4 µM (inactive)
IC50 [11]: > 79.4 µM (inactive)
IC50 [12]: > 79.4 µM (inactive)
Structure (SMILES): Cc1cc(C)nc(NC(=O)c2cc(-c3ccc(C)s3)nc3ccccc23)c1

IC50 [13]: 2 µM (active)
IC50 [14]: 14.3 µM (active)
Structure (SMILES): CN[C@@H](C)C(=O)N[C@H](C(=O)N1CCC[C@H]1C(=O)Nc1ccc2[nH]ccc2c1)C(C)C

Structure (SMILES): Cc1sc2ncnc(N3CCC(Cc4ccccc4)CC3)c2c1C
IC50 [15]: > 18.6 µM (inactive)
IC50 [16]: > 55.7 µM (inactive)

EC50 [17]: 7.89 µM (active)
EC50 [18]: 20.6 µM (inactive)
EC50 [19]: > 64 µM (inactive)
EC50 (Mu-type opioid receptor): > 32 µM (inactive)
Structure (SMILES): Fc1cc(F)cc(CSc2nnc(-c3ccccn3)n2Cc2ccco2)c1
